We go through 2 compounds from patent US11584733B2, “Selective histone deacetylase inhibitors for the treatment of human disease” (Shuttle Pharmaceuticals, Inc., priority 2017, dated 2023).

The assay deals with T1, Human recombinant HDAC6 (Homo sapiens, UniProt Q9UBN7).
T1 sequence (Q9UBN7 1-1215): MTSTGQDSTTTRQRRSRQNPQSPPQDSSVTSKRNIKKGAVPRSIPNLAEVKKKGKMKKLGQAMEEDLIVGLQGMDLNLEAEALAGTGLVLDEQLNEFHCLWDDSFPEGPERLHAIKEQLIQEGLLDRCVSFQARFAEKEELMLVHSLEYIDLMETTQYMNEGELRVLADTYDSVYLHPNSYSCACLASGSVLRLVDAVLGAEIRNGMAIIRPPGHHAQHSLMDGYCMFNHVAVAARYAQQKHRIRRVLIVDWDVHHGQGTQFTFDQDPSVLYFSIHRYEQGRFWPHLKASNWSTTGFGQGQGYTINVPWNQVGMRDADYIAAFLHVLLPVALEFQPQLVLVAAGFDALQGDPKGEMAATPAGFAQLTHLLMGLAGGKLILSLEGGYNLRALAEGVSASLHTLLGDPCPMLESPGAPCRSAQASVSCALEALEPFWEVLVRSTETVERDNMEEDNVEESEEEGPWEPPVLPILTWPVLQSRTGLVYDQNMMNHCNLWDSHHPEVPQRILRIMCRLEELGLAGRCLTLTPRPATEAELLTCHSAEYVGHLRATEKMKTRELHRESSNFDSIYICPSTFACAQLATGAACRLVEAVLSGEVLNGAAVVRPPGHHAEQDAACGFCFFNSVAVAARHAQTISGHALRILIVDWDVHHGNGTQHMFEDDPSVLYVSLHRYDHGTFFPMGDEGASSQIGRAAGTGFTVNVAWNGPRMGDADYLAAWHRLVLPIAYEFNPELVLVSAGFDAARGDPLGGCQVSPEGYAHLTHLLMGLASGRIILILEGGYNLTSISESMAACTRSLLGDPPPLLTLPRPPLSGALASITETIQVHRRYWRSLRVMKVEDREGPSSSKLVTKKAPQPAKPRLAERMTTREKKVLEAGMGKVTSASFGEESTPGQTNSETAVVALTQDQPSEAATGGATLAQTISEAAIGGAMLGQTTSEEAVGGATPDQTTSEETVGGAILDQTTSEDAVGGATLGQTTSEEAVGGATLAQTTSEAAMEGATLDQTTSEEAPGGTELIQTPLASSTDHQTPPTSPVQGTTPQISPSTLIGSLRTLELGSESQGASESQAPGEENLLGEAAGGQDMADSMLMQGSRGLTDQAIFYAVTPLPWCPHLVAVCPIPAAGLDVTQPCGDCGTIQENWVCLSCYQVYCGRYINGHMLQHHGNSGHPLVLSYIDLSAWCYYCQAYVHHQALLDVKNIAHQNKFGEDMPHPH
As to the kind of experiment: HDAC isomer assay, Fluor-de-Lys, HDAC6. The assay is classed as biochemical. The conditions noted are these: proof of concept; FIGS. 11 and 12; read-out: EC50 against HDAC6. The protocol:
The HDAC isomer (HDAC1, 3, and 6) assays were performed as follows:
Materials: Human recombinant HDAC isomer (HDAC1, HDAC3, and HDAC6); Fluor-de-Lys HDAC substrates; 360 nm excitation 460 nm emission Plate Reader; Disposable pipettes; Pipet-aid; Pipette tips; Micro-pipetter; DMSO; Sterile micro-tubes and conical tubes; and Micro-centrifuge.
Test compounds and control preparation: All test compounds' stock solutions were made in 100% DMSO. Test compound dilutions were made in HDAC Assay buffer with a final concentration of DMSO less than or equal to 1%. Vehicle control was HDAC Assay buffer with 1% DMSO.
The reagents for the assay were prepared as follows:
1. All kit components were defrosted and these, and all dilutions described below, were kept on ice until use.
2. A sufficient amount of HDAC source diluted in Assay Buffer (BML-KI143) was prepared to provide for the assays that were performed (# of wells×15 μl). A 30-fold dilution of the HeLa Extract means that 15p L contains 0.5 μl of the undiluted Extract, an appropriate amount to use per well.
3. Dilution(s) of SAHA and/or Test Inhibitors were prepared in Assay Buffer (BML-KI143). Since 10 μl were used per well, and since the final volume of the HDAC reaction was 50p, these inhibitor dilutions were 5× their final concentration.
4. Dilution(s) of the Fluor de Lys® Substrate (BML-KI104; 50 mM) were prepared in Assay Buffer (BML-KI143) that were 2× the desired final concentration(s). For inhibitor screening, substrate concentrations at or below the Km are recommended. Twenty-five μL were used per well. […] Rapid mixing and dilution into room temperature buffer helped to prevent precipitation at high substrate concentration.
5. Shortly before use (<30 min.), sufficient Fluor de Lys® Developer was prepared for the assays to be performed (50 μl per well). First, the Fluor de Lys® Developer Concentrate was diluted 20-fold (e.g. 50 μl plus 950 μl Assay Buffer) in cold Assay Buffer (BML-K1143). […] The addition of SAHA to the Developer insures that HDAC activity stops when the Developer is added. The Developer was kept on ice until use.
1. Assay buffer, diluted trichostatin A or test inhibitor was added to appropriate wells of the microtiter plate.
2. Diluted HeLa extract or other HDAC sample was added to all wells except those that are to be “No Enzyme Controls.”
3. Diluted Fluor de Lys® Substrate and the samples in the microtiter plate were allowed to equilibrate to assay temperature (e.g. 25 or 37° C.).
4. HDAC reactions were initiated by adding diluted substrate (25 μl) to each well and mixing thoroughly.
5. HDAC reactions were allowed to proceed for desired length of time and then stop them by addition of Fluor de Lys® Developer (50 μl). The plates were incubated at room temperature (25° C.) for 10-15 min.
6. Samples were read in a microtiter-plate reading fluorimeter capable of excitation at a wavelength in the range 350-380 nm and detection of emitted light in the range 440-460 nm.

pEC50: −log10 of the molar value.

For orientation: pEC50 means −log10 of the EC50, conventionally taken in molar units. For `O=C1CCCC(=O)N1` [glutaramide, glutarimide, reference compound], the pEC50 is under 4.60.

Consider `Nc1cccc2c1CN(C1CCC(=O)NC1=O)C2=O` (centres unmarked) [lenalidomide, reference compound], for which the pEC50 was under 4.60.
